Source: PubChem BioAssay (NCI)
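Cells were grown in 96-well plates and exposed to each compound for 48 hours at five concentrations; endpoints were interpolated linearly between bracketing concentrations, or set to the highest concentration if not reached. TGI is the concentration that stops growth completely.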

Columns and labels:
Experiment in all cases: NCI anticancer screen, dose series, 48 h
[1] = test system: MALME-3M melanoma
[2] = test system: OVCAR-4 ovarian
[3] = test system: SNB-75 CNS
[4] = test system: SK-MEL-28 melanoma
[5] = test system: U251 CNS
[6] = test system: UACC-62 melanoma
[7] = test system: HL-60(TB) leukemia
[8] = test system: SF-539 CNS
[9] = test system: SK-OV-3 ovarian
[10] = test system: PC-3 prostate
[11] = test system: ACHN renal
[12] = test system: OVCAR-8 ovarian
[13] = test system: M14 melanoma
[14] = test system: MDA-MB-435
[15] = test system: UACC-257 melanoma
[16] = test system: KM12 colon
[17] = test system: NCI/ADR-RES ovarian
[18] = test system: IGROV1 ovarian
[19] = test system: SK-MEL-2 melanoma
[20] = test system: MDA-MB-231 breast
[21] = test system: SNB-19 CNS
[22] = test system: SK-MEL-5 melanoma
[23] = test system: HT29 colon
[24] = test system: T-47D breast
[25] = test system: 786-0 renal
[26] = test system: NCI-H23 lung
[27] = test system: CCRF-CEM leukemia
[28] = test system: CAKI-1 renal
[29] = test system: HOP-92 NSCLC
[30] = test system: HOP-62 NSCLC
[31] = test system: TK-10 renal
[32] = test system: RXF 393 renal
[33] = test system: HCC-2998 colon
[34] = test system: HCT-116 colon
[35] = test system: COLO 205 colon
[36] = test system: SF-295 CNS
[37] = test system: NCI-H226 lung
[38] = test system: SF-268 CNS
[39] = test system: A549 NSCLC
[40] = test system: EKVX NSCLC
[41] = test system: BT-549 breast
[42] = test system: OVCAR-3 ovarian
[43] = test system: UO-31 renal
[44] = test system: SN12C renal
[45] = test system: SW-620 colon
[46] = test system: MOLT-4 leukemia
[47] = test system: NCI-H522 lung
[48] = test system: LOX IMVI melanoma

SMILES: O=[N+]([O-])c1cccc2nc3ccccc3c(NCCCNc3c4ccccc4nc4cccc([N+](=O)[O-])c34)c12
- TGI [1]: 329 nM
- TGI [2]: 302 nM
- TGI [3]: 277 nM
- TGI [4]: 181 nM
- TGI [5]: 181 nM
- TGI [6]: 245 nM
- TGI [7]: 328 nM
- TGI [8]: 149 nM
- TGI [9]: 1590 nM
- TGI [10]: 143 nM
- TGI [11]: 13.5 nM
- TGI [12]: 131 nM
- TGI [13]: 74.4 nM
- TGI [14]: 141 nM
- TGI [15]: 329 nM
- TGI [16]: 73 nM
- TGI [17]: 1190 nM
- TGI [18]: 967 nM
- TGI [19]: 130 nM
- TGI [20]: 31.1 nM
- TGI [21]: 163 nM
- TGI [22]: 22.1 nM
- TGI [23]: < 10 nM
- TGI [24]: 407 nM
- TGI [25]: < 10 nM
- TGI [26]: 248 nM
- TGI [27]: 162 nM
- TGI [28]: 118 nM
- TGI [29]: < 10 nM
- TGI [30]: 84.4 nM
- TGI [31]: < 10 nM
- TGI [32]: < 10 nM
- TGI [33]: 22.3 nM
- TGI [34]: < 10 nM
- TGI [35]: < 10 nM
- TGI [36]: 1500 nM
- TGI [37]: 11700 nM
- TGI [38]: 38.7 nM
- TGI [39]: 166 nM
- TGI [40]: 97.5 nM
- TGI [41]: 441 nM
- TGI [42]: 90.6 nM
- TGI [43]: 143 nM
- TGI [44]: 97.6 nM
- TGI [45]: > 100000 nM
- TGI [46]: 97.2 nM
- TGI [47]: 121 nM
- TGI [48]: > 100000 nM
